Experimental data from PubChem BioAssay (NCI).
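Values below derive from 48-hour exposures of cells grown in 96-well plates, with endpoints linearly interpolated between the two concentrations bracketing the appropriate inhibition level. The concentration for 50% growth inhibition is given as GI50. The concentration for full growth arrest is given as TGI.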

Legend:
Assay in all cases: NCI tumour cell line growth inhibition, 48 h
[1] = tested on: SK-MEL-2 melanoma
[2] = tested on: DU-145 prostate
[3] = tested on: HCT-15 colon
[4] = tested on: HOP-62 NSCLC
[5] = tested on: MCF7 breast
[6] = tested on: TK-10 renal
[7] = tested on: MALME-3M melanoma
[8] = tested on: NCI-H23 lung
[9] = tested on: NCI-H460 lung
[10] = tested on: SF-539 CNS
[11] = tested on: SR leukemia

Structure (SMILES)	TGI [1]	TGI [2]	TGI [3]	TGI [4]	TGI [5]	TGI [6]	TGI [7]	TGI [8]	TGI [9]	TGI [10]	TGI [11]	GI50 [5]	GI50 [8]
COc1cc(NP(=O)(Oc2ccccc2)Oc2ccccc2)ccc1Nc1c2ccccc2nc2c1[nH]c1ccccc12	22.6 µM	1.56 µM	> 37.3 µM	2.8 µM	25.7 µM	12.3 µM	29.1 µM	12.3 µM	29.2 µM	–	–	–	–
CC(=O)N(CCc1ccccc1)C(C#N)c1ccc(OCCCCCCCCCCOc2ccc(C(C#N)N(CCc3ccccc3)C(C)=O)cc2)cc1 (configuration not stated)	> 100 µM	> 100 µM	> 100 µM	–	> 100 µM	> 100 µM	> 100 µM	> 100 µM	> 100 µM	> 100 µM	–	–	–
O=C(O)c1ccccc1C(=O)Nn1cnnc1	> 100 µM	> 100 µM	> 100 µM	> 100 µM	> 100 µM	> 100 µM	–	> 100 µM	–	> 100 µM	–	–	–
O=C(C1C(c2ccccc2)N1C(c1ccccc1)c1ccccc1)C1C(c2ccccc2)N1C(c1ccccc1)c1ccccc1 (configuration not stated)	–	–	–	> 100 µM	22.4 µM	60.9 µM	–	–	29.5 µM	43.4 µM	16.6 µM	–	–
CN(/N=C/c1ccccn1)C1=NCCCCN1	> 100 µM	–	> 100 µM	> 100 µM	> 100 µM	> 100 µM	> 100 µM	> 100 µM	> 100 µM	> 100 µM	> 100 µM	–	–
O=C1c2ccccc2-c2ccc(N=Nc3c(O)ccc4ccccc34)cc21	> 100 µM	> 100 µM	> 100 µM	> 100 µM	–	> 100 µM	> 100 µM	> 100 µM	–	–	–	–	–
CC1=NN(C(=O)c2ccccc2O)C(=O)/C1=C/c1ccccc1O	> 91.4 µM	–	21.2 µM	39.4 µM	> 64.2 µM	> 100 µM	74.4 µM	20.9 µM	> 100 µM	2.45 µM	65.4 µM	–	–
Cc1ccc(Nc2nc(N)nc3c2ncn3C2OC(CO)C(O)C2O)cc1 (configuration not stated)	> 100 µM	> 100 µM	> 100 µM	> 100 µM	> 100 µM	> 100 µM	> 100 µM	> 100 µM	–	> 100 µM	–	–	–
CC1=C(C(=O)NCCc2ccccc2)CC(C(=O)NCCc2ccccc2)=C(C)N1	> 100 µM	> 100 µM	> 100 µM	> 100 µM	> 100 µM	> 100 µM	–	> 100 µM	> 100 µM	> 100 µM	–	–	–
O=C1C(=O)c2ccccc2C(O)=C1CN(CCCl)CCCl	> 100 µM	–	> 100 µM	> 100 µM	–	> 100 µM	> 100 µM	> 100 µM	> 100 µM	> 100 µM	> 100 µM	–	–
COC1=C(N2CC2)C(=O)c2nc3n(c2C1=O)CCC3	–	1.36 µM	1.55 µM	2.34 µM	4.08 µM	7.08 µM	0.827 µM	2.34 µM	2.42 µM	7.79 µM	16.9 µM	–	–
COC(=O)C1=Cc2cc(OC)c(O)cc2[C@@H](c2ccc(O)c(OC)c2)[C@@H]1C(=O)OC	–	> 100 µM	> 100 µM	> 100 µM	> 100 µM	–	> 100 µM	> 100 µM	> 100 µM	> 100 µM	> 100 µM	–	–
[O-][n+]1onc(-c2ccccc2)c1CN1CCOCC1	> 100 µM	> 100 µM	> 100 µM	> 100 µM	> 100 µM	> 100 µM	> 100 µM	> 100 µM	> 100 µM	> 100 µM	–	–	–
N#Cc1c(Cl)/c(=C/O)c(=O)n2c1nc1ccccc12	–	> 100 µM	> 100 µM	> 100 µM	> 100 µM	> 100 µM	> 100 µM	> 100 µM	> 100 µM	> 100 µM	–	–	–
Nc1cn(Cc2ccccc2)c2nc(/C=C3/C=CC=CC3=O)c(O)n12	> 100 µM	> 100 µM	> 100 µM	> 100 µM	> 100 µM	> 100 µM	> 100 µM	> 100 µM	> 100 µM	> 100 µM	–	–	–
O=C1CCC2CCC1C2 (configuration not stated)	> 100 µM	> 100 µM	> 100 µM	> 100 µM	> 100 µM	> 100 µM	> 100 µM	> 100 µM	> 100 µM	> 100 µM	–	–	–
[N-]=[NH+]CC(=O)OC(COCc1ccccc1)COCc1ccccc1	> 100 µM	> 100 µM	> 100 µM	> 100 µM	> 100 µM	> 100 µM	> 100 µM	> 100 µM	> 100 µM	–	> 100 µM	–	–
CCOC(=O)/C(C#N)=C1\c2c([nH]c(=S)[nH]c2=O)Oc2ccc3ccccc3c21	41 µM	> 100 µM	> 100 µM	> 100 µM	> 100 µM	> 100 µM	> 100 µM	> 100 µM	> 100 µM	–	> 100 µM	–	–
CCCCCCCCCCCCC(O)C1CCC(C(O)CCCCCCC(O)CCCCCCCC2=CC(C)OC2=O)O1 (configuration not stated)	61.1 µM	–	> 100 µM	> 100 µM	> 100 µM	> 100 µM	56.7 µM	> 100 µM	> 100 µM	–	–	23.6 µM	13.3 µM
Cc1cccc(C)c1NC(=S)NC=C(C(N)=O)C(N)=O	> 100 µM	> 100 µM	> 100 µM	> 100 µM	> 100 µM	> 100 µM	–	> 100 µM	> 100 µM	> 100 µM	–	–	–
COc1cc(C=Nc2ccc(C(C)C)cc2)cc(OC)c1OC	> 100 µM	–	> 100 µM	> 100 µM	–	> 100 µM	> 100 µM	> 100 µM	> 100 µM	> 100 µM	> 100 µM	–	–
COc1cc(C2C3=C(COC3=O)Oc3cc4c(cc32)OCO4)ccc1OC(C)=O (configuration not stated)	> 100 µM	> 100 µM	> 100 µM	> 100 µM	> 100 µM	> 100 µM	0.565 µM	> 100 µM	> 100 µM	0.749 µM	–	–	–
